Assay results taken from publication PMC5834492, “Antimycobacterial drug discovery using Mycobacteria-infected amoebae identifies anti-infectives and new molecular targets” (Scientific Reports, 2018).
Read-outs that look alike come from different tables or passages of the source.

Legend:
[1] = system: M. marinum in BV2 microglial cells; type: cell-based, Mycobacterium marinum
Mtb H37Rv in THP-1 = system: Mtb H37Rv in THP-1; set-up: method as in Sorrentino et al, 2015; details: ref Sorrentino et al, 2015, cited from earlier work; for Extracellular MIC90/ Inracellular MIC90: ratio
Mtb H37Rv = system: Mtb H37Rv; set-up: method as in Sorrentino et al, 2015; details: ref Sorrentino et al, 2015; cited from earlier work
M. marinum luxCDABE = type: cell-based, Mycobacterium marinum; details: 10 µM
[2] = system: M. marinum in A. castellanii; type: cell-based, Mycobacterium marinum; details: 10 µM
M. marinum GFP = type: cell-based, Mycobacterium marinum; details: 10 µM; antibiotic assay
D. discoideum GFP-ABD = details: 10 µM
[3] = THP1 / Mtb H37Rv infection assay

| SMILES | IC50 [1] | BV2 / M. marinum normalised growth, control=1.00, mean ([1]; 10 µM) | Intracelullar MIC90 in THP-1 (Mtb H37Rv in THP-1; [3]) | Extracellular MIC90/ Inracellular MIC90 (Mtb H37Rv in THP-1) | Extracellular MIC90 (Mtb H37Rv) | M. marinum luxCDABE normalised growth, control=1.00, mean (M. marinum luxCDABE) | A. castellanii / M. marinum normalised growth, control=1.00, mean [2] | M. marinum GFP normalised growth, control=1.00, mean (M. marinum GFP) | D. discoideum GFP-ABD normalised growth, control=1.00, mean (D. discoideum GFP-ABD) | hit in BV2/M. marinum assay True/False ([1]; 10 µM) | Intracelullar MIC90 in THP-1 (Mtb H37Rv in THP-1; Mtb H37Rv-infected THP1 cells) | M. marinum luxCDABE normalised growth, control = 1.00, mean (M. marinum luxCDABE) | Hits A. castellanii/M. marinum assay True/False [2] | anti-infective properties in microglial cell (BV2) infection assay ([1]; 10 µM) | anti-infective properties in A. castellanii infection assay [2] |
| --- | --- | --- | --- | --- | --- | --- | --- | --- | --- | --- | --- | --- | --- | --- | --- |
| CCn1c(=O)c(=O)[nH]c2cc(C(=O)Nc3ccccc3Nc3ccc(OC)cc3)ccc21 [GSK1385423A] | 2.42 µM | 0.71 | 0.61 µM | 13.77 | 8.4 µM | 1.00 | 1.07 | 0.98 | 0.39 | – | – | – | – | – | – |
| Cc1nc2ccccn2c1C(=O)NCc1cccs1 [GSK892651A] | 4.41 µM | 0.60 | 5.55 µM | 1.62 | 9 µM | 0.00 | 0.65 | 0.12 | 0.83 | – | – | – | – | – | – |
| Cc1nc2ccccn2c1C(=O)NCc1ccc2c(c1)OCO2 [GSK498315A] | 5.95 µM | 0.47 | 1.85 µM | 1.57 | 2.9 µM | 0.00 | 0.56 | 0.0644 | 0.81 | TRUE | 1.85 µM | 0,00 | FALSE | – | – |
| Cc1ccccc1CN1CCC(O)(c2ccc(Cl)c(C(F)(F)F)c2)CC1 [GSK1985270A] | 4.88 µM | 0.45 | 0.21 µM | 20 | 4.2 µM | 0.00 | -0.06 | 0.09 | 0.99 | TRUE | 0.21 µM | 0,00 | TRUE | strong anti-infective properties | strong anti-infective properties |
| COc1ccc(CCNc2cc(-c3ccccc3)nc3ncnn23)cc1 [GSK888636A] | 5.42 µM | 0.72 | 1.85 µM | 0.32 | 0.6 µM | 0.00 | 1.02 | 0.44 | 1.15 | – | – | – | – | – | – |
| N=C(Nc1nc(-c2ccccn2)cc2ccccc12)c1cccc(Cl)c1 [GSK381407A] | 7.71 µM | 0.65 | 0.61 µM | 7.38 | 4.5 µM | 0.00 | 1.06 | 7.92e-5 | 0.98 | – | – | – | – | – | – |
